Assay results published in article doi:10.1101/2022.10.06.511132v1, “Development of Enterovirus anti-viral agents that target the viral 2C protein” (biorxiv, 2022).

What was measured:
[1] = test system: EV-A71; assay: microbe, parasite or virus in culture; design: NIAID secondary assay, neutral red cytopathic effect reduction; conditions: Enterovirus A, EV71 / EVA71, read-out: EC50 µM, EV-71 neutral red
[2] = test system: EV-A71; assay: microbe, parasite or virus in culture; design: NIAID secondary assay, virus yield reduction, visual titre; conditions: Enterovirus A, EV71 / EVA71, read-out: EC90 µM, EV-71 VYR
[3] = test system: EV-68 (EV-D68); assay: microbe, parasite or virus in culture; design: NIAID secondary assay, neutral red cytopathic effect reduction; conditions: Enterovirus D, read-out: EC50 µM, EV-68 neutral red
[4] = molecular target: T1, EV-A71 Δ2C^116-329 (Enterovirus A71, UniProt B9VUU3); assay: malachite green ATPase assay; format: biochemical
T1 construct: N-terminally truncated mature protein 2C residues 116-329, cut from the genome polyprotein; N-terminal MBP tag and C-terminal His6 (kept, MBP-Δ2C-(His)6); codon-optimised synthetic gene in pMALc5x, E. coli Rosetta 2(DE3) pLysS; active as hexamer
T1 sequence (B9VUU3 1227-1440, stated change not applied): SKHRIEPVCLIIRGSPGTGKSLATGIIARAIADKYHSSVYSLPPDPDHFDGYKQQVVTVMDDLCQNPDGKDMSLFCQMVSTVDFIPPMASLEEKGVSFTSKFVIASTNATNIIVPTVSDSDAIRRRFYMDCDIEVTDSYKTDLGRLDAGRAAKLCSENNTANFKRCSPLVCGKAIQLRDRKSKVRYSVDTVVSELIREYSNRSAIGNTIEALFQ

[5] = test system: EV-68 (EV-D68); assay: microbe, parasite or virus in culture; design: NIAID secondary assay, virus yield reduction, visual titre; conditions: Enterovirus D, read-out: EC90 µM, EV-68 VYR

Structure (SMILES)	EC50 [1]	EC90 [2]	EC50 [3]	IC50 [4]	EC90 [5]
Cc1ccc2[nH]c(-c3ccc(NC(=O)c4cccs4)cc3)nc2c1 [SJW-2C-227]	1.7 µM	3.2 µM	0.52 µM	23.4 µM	0.59 µM
O=C(Nc1ccc(-c2nc3cc4ccccc4cc3[nH]2)cc1)c1cccc(Br)c1 [SJW-2C-239]				33.1 µM	
Cc1ccc2[nH]c(-c3ccc(NC(=O)c4ccc(C)c(C)c4)cc3)nc2c1 [SJW-2C-234]				55 µM	
